Like-named read-outs stand apart in the source and are kept apart here.

In data set [1] the target is T1, HERG channels (Homo sapiens, UniProt Q12809).
For data set [2] the following is noted: risk of Torsades de Pointes, from www.torsades.org; cited from earlier work.
Data set [3] addresses T2, human MCH-1 receptor (Homo sapiens, UniProt Q99705).
T2 construct: expressed in transfected cells; host or cells: transiently transfected COS-7 cells or stably transfected CHO cells (pcDNA3.1)
As to the kind of experiment: MCH receptor binding ([125I]-MCH competition binding / SPA). The procedure: (§1) Transfections and Tissue Culture—The cDNA encoding the human MCH-1 receptor was cloned from a human brain cDNA library and cloned into the eukaryotic expression vector pcDNA3.1 (Invitrogen). Assays were performed on transiently transfected COS-7 cells or stably transfected CHO (Chinese Hamster Ovary) cells, expressing the human MCH-1 receptor in pcDNA3.1. […] Clones were screened by a MCH receptor radioligand binding assay (as described below).
Radioligand Binding Assay—Transiently transfected COS-7 cells or stably transfected CHO cells, expressing human MCH-1 receptor were seeded in multi-well culture plates one day before the assay. The number of cells per well was determined by the apparent expression efficiency of the cell line aiming at 5-10% binding of the added radioligand. […] The assay was performed in duplicate. Nonspecific binding was determined as the binding in the presence of 1 μM MCH (Bachem). Binding data were analyzed and IC50 values determined by non-linear regression using the Prism software (GraphPad software, San Diego). Values of the dissociation and inhibition constants (Kd and Ki) were estimated from competition binding using the equations Kd=IC50-L and Ki=IC50/(1+L/Kd), respectively, where L is the concentration of radioligand.
Membranes and beads were pre-incubated for 20 min. […] Moreover, CHO-K1 membranes expressing the hMCH receptor were purchased from Euroscreen (ES-370-M) and a final concentration of 2 μg/well were used. Binding data were analyzed and IC50 values determined by non-linear regression using the Prism software (GraphPad software, San Diego). Values of the inhibition constant (Ki) were estimated from competition binding using the equation Ki=IC50/(1+L/Kd), where L and Kd are the concentration and affinity constant, respectively, of the radioligand.

Data set [4] concerns the target T2, human MCH-1 receptor. As to the kind of experiment: Phosphatidylinositol (IP3) assay, MCH-stimulated turnover. Type of data set: cell-based. The procedure:
as §1
Phosphatidylinositol assay—To assay phosphatidylinositol turnover, transiently transfected COS-7 cells or stably transfected CHO cells, expressing human MCH-1 receptor (2×10^5 cells/well) were incubated for 24 h with 5 μCi of (^3H]-myo-inositol (Amersham Pharmacia Biotech) in 0.5 ml inositol-free culture medium. Cells were washed twice in PI-buffer: 20 mM HEPES, pH 7.4, supplemented with 140 mM NaCl, 5 mM KCl, 1 mM MgSO4, 1 mM CaCl2, 10 mM glucose, 0.02% (w/v) bovine serum; and were incubated in 0.5 ml PI-buffer supplemented with 10 mM LiCl at 37° C. for 45 min.
Phosphatidylinositol turnover was stimulated by submaximal concentrations of MCH, i.e. 10 nM in the presence of increasing amounts of ligand. The ligand was added 5 min. before adding the agonist (MCH). Cells were extracted with 10 mM ice-cold Formic acid, and the generated [^3H]-inositol phosphates were purified on Bio-Rad AG 1-X8 anion-exchange resin. Determinations were made in duplicate. PI data were analyzed and IC50 values determined by non-linear regression using the Prism software (GraphPad software, San Diego).

Data set [5] deals with T1, HERG channels. As to the kind of experiment: HERG selectivity method, whole-cell patch-clamp recordings.
Setting [6] is: stimulated by 10 nM MCH, read-out: IP3 IC50.
Throughout, for Risk Group: key: 1: Drugs that are generally accepted by authorities to have a risk of Torsades de Pointes (TdP); 2: Drugs that in some reports may be associated with TdP but at this time lack substantial evidence; 4: Drugs that, in some reports, have been weakly associated with TdP but that when used in usual dosages are unlikely to be a risk for TdP.

T2 sequence (Q99705 whole entry): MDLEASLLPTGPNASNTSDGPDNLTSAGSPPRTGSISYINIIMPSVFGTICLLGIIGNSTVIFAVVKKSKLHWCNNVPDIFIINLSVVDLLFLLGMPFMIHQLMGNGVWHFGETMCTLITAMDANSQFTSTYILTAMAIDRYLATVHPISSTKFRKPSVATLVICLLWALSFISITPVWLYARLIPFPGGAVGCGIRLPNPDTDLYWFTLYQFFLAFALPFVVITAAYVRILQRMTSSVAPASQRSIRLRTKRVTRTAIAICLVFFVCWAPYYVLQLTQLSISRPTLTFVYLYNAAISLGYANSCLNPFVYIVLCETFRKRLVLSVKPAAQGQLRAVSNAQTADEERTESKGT
T1 sequence (Q12809 whole entry): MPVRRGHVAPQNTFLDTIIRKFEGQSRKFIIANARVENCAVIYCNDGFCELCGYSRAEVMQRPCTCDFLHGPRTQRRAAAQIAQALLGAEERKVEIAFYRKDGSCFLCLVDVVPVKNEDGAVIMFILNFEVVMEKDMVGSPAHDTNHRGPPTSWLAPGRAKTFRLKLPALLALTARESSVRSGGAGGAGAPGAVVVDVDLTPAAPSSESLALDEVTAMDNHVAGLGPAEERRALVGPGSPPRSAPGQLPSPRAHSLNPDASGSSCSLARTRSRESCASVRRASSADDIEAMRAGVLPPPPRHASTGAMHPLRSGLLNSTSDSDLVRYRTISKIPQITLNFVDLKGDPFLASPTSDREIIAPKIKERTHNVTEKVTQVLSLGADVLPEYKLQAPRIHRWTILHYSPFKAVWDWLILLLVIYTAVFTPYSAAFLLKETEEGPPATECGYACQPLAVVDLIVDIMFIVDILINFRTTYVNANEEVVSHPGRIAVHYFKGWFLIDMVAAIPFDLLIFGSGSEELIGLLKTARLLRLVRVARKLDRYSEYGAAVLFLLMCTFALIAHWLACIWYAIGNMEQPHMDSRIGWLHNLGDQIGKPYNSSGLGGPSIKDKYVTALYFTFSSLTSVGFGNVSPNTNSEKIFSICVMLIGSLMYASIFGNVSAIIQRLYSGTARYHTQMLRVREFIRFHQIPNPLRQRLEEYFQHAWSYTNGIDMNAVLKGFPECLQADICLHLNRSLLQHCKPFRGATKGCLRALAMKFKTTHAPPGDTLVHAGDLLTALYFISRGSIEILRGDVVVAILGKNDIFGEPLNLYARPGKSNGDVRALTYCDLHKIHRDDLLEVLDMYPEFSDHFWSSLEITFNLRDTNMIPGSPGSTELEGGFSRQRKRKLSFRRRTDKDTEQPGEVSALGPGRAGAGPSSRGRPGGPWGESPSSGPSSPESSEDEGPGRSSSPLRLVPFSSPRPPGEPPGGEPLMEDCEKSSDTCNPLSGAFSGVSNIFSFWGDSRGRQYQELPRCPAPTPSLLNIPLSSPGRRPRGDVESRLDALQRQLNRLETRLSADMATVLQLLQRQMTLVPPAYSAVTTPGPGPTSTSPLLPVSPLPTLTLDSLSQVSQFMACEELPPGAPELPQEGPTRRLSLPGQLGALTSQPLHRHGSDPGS

Regarding `CC(C)NCC(O)c1ccc(NS(C)(=O)=O)cc1` (racemic) [(±) sotalol], the “Ki in μM ± S.D. (#)” value in data set [1] is listed as “No effect at 100 (5)”. The “Risk Group” value in data set [2] is 1.
With `CN(C)CCCN1c2ccccc2Sc2ccc(Cl)cc21` [Chlorpromazine], in data set [2], the “Risk Group” value was 1.
On to `CC(C)COCC(CN(Cc1ccccc1)c1ccccc1)N1CCCC1` (stereo not drawn) [Bepridil], for which the “Risk Group” value in data set [2] was 1.
For the compound `Cc1cc(N2CCC(N)CC2)nc2ccc(NC(=O)COc3ccc(Cl)cc3Cl)cc12` [Example 33, N-[2-(4-Amino-piperidin-1-yl)-4-methyl-quinolin-6-yl]-2-(2,4-dichloro-phenoxy)-acetamide], the figures for the IC50 in data set [3] and in data set [4] (setting [6]) were 41 nM and 63 nM, respectively.
`Cc1cc(OCCN(C)C)nc2ccc(NC(=O)COc3ccc(Cl)cc3Cl)cc12` [Example 76, 2-(2,4-Dichloro-phenoxy)-N-[2-(2-dimethylamino-ethoxy)-4-methyl-quinolin-6-yl]-acetamide] yielded an IC50 in data set [4] of 135 nM.
For `CNCCC(Oc1ccc(C(F)(F)F)cc1)c1ccccc1` (stereo not drawn) [Fluoxetine], the “Risk Group” value in data set [2] is 4.
As for `OCCN1CCN(CCCN2c3ccccc3Sc3ccc(C(F)(F)F)cc32)CC1` [Fluphenazine], in data set [5], the Ki came out at 2.5 ± 0.57 µM.
For `CN(C)CCC=C1c2ccccc2COc2ccccc21` [Doxepine], the “Risk Group” value in data set [2] is given as 4.
`Cc1cc(N(C)CCN(C)C)nc2ccc(NC(=O)CCc3ccc(OC(F)(F)F)cc3)cc12` [Example 98, N-{2-[(2-Dimethylamino-ethyl)-methyl-amino]-4-methyl-quinolin-6-yl}-3-(4-trifluoromethoxy-phenyl)-propionamide]: the figures for the half-maximal inhibitory concentration (IC50) in data set [3] and in data set [4] (setting [6]) were 37 nM and 720 nM, respectively.
`O=c1[nH]c2ccccc2n1C1CCN(CCCC(c2ccc(F)cc2)c2ccc(F)cc2)CC1` [Pimozide]: the “Risk Group” value in data set [2] was 1.
As to `CCCCc1oc2ccccc2c1C(=O)c1cc(I)c(OCCN(CC)CC)c(I)c1` [Amiodarone], the “Risk Group” value in data set [2] is reported as 1.
Regarding `Cc1cc(N2CCN(C)CC2)nc2ccc(NC(=O)/C=C/c3ccc(OC(F)(F)F)cc3)cc12` [Example 16, (E)-N-[4-Methyl-2-(4-methyl-piperazin-1-yl)-quinolin-6-yl]-3-(4-trifluoromethoxy-phenyl)-acrylamide], the half-inhibitory concentration (IC50) is 11 nM in data set [3] and 42 nM in data set [4] (setting [6]).
Taken in the same sequence, the figures for `CCN1CCCC1CNc1cc(C)c2cc(NC(=O)/C=C/c3ccc(OC(F)(F)F)cc3)ccc2n1` (stereo not drawn) [Example 62, (E)-N-{2-[(1-Ethyl-pyrrolidin-2-ylmethyl)-amino]-4-methyl-quinolin-6-yl}-3-(4-trifluoromethoxy-phenyl)-acrylamide] were 13 nM and 10 nM.
For `Cc1cc(NCC(C)(C)CN(C)C)nc2ccc(NC(=O)COc3ccc(OC(F)(F)F)cc3)cc12` [Example 45, N-[2-(3-Dimethylamino-2,2-dimethyl-propylamino)-4-methyl-quinolin-6-yl]-2-(4-trifluoromethoxy-phenoxy)-acetamide] the same measures were 21 nM and 190 nM.
With `Cc1cc(NCCN(C(C)C)C(C)C)nc2ccc(NC(=O)COc3ccc(OC(F)(F)F)cc3)cc12` [Example 40, N-[2-(2-Diisopropylamino-ethylamino)-4-methyl-quinolin-6-yl]-2-(4-trifluoromethoxy-phenoxy)-acetamide], the IC50 in data set [3] was 22 nM.
For the compound `Cc1cc(N(C)CCN(C)C)nc2ccc(NC(=O)c3ccc(-c4ccc(C(F)(F)F)cc4)cc3)cc12` [Example 183, 4′-Trifluoromethyl-biphenyl-4-carboxylic acid {2-[(2-dimethylamino-ethyl)-methyl-amino]-4-methyl-quinolin-6-yl}-amide], the values for the IC50 in data set [3] and in data set [4] (setting [6]) were 63 nM and 474 nM, respectively.
On to `CN1CCN(C(c2ccccc2)c2ccc(Cl)cc2)CC1` (stereo not drawn) [Chlorcyclizine], for which, in data set [5], the Ki came out at 4 ± 1.4 µM.
With `Cc1cc(N2CCN(CCO)CC2)nc2ccc(NC(=O)COc3ccc(OC(F)(F)F)cc3)cc12` [Example 38, N-{2-[4-(2-Hydroxy-ethyl)-piperazin-1-yl]-4-methyl-quinolin-6-yl}-2-(4-trifluoromethoxy-phenoxy)-acetamide], the half-maximal inhibitory concentration (IC50) is 50 nM in data set [3] and 23 nM in data set [4] (setting [6]).
Take `Cc1nc2n(c(=O)c1CCN1CCC(c3noc4cc(F)ccc34)CC1)CCCC2` [Risperidone]: the “Risk Group” value in data set [2] is given as 2.
For the compound `CNCCCN1c2ccccc2CCc2ccccc21` [Desipramine], the “Risk Group” value in data set [2] was 4.
With `CN1CCN(CC/C=C2/c3ccccc3Sc3ccc(S(=O)(=O)N(C)C)cc32)CC1` [Cis-Thiothixene], the inhibition constant (Ki) in data set [5] (read-out: Ki in μM ± S.D. (#), HEK 293 cells stably expressing HERG+KCNE1, tail-current block, room temperature, Ki=koff/kon) worked out at 8.6 ± 2.7 µM.
On to `Cc1cc(NCCN2CCOCC2)nc2ccc(NC(=O)COc3ccc(OC(F)(F)F)cc3)cc12` [Example 42, N-[4-Methyl-2-(2-morpholin-4-yl-ethylamino)-quinolin-6-yl]-2-(4-trifluoromethoxy-phenoxy)-acetamide], for which the 50% inhibitory concentration (IC50) in data set [3] was found to be 10 nM; in data set [4] (setting [6]), 16 nM.
Consider `CN(C)CCCN1c2ccccc2CCc2ccccc21` [Imipramine], for which the “Risk Group” value in data set [2] is 4.
In data set [1], `O=C(CCCN1CCC(O)(c2ccc(Cl)cc2)CC1)c1ccc(F)cc1` [Haloperidole] came in with an inhibitory constant (Ki) of 170 nM. In addition, the “Risk Group” value in data set [2] is on record as 1.
For the compound `CC(=O)N1CCN(c2ccc(OCC3COC(Cn4ccnc4)(c4ccc(Cl)cc4Cl)O3)cc2)CC1` (stereo not drawn) [Ketoconazole], the “Risk Group” value in data set [2] was 4.
`Cc1nc(N(C)CCCN(C)C)nc2ccc(NC(=O)COc3ccc(Cl)cc3Cl)cc12` [Example 137, 2(2,4-Dichlorophenoxy)N{2[(3-dimethylaminopropyl)methyl-amino]-4-methyl-quinazolin-6-yl}-acetamide]: the IC50 in data set [3] came out at 10 nM; in data set [4] (setting [6]), 63 nM.
Take `Clc1ccc2c(c1)C(N1CCNCC1)=Nc1ccccc1O2` [Amoxapine]: the “Risk Group” value in data set [2] is 4.
Take `Cc1cc(N2CCCNCC2)nc2ccc(NC(=O)COc3ccc(OC(F)(F)F)cc3)cc12` [Example 25, N-(2-[1,4]Diazepan-1-yl-4-methylquinolin-6-yl)-2-(4-trifluoromethoxyphenoxy)-acetamide]: the half-maximal inhibitory concentration (IC50) in data set [3] turned out to be 12 nM; in data set [4] (setting [6]), 71 nM.
Regarding `CN(C)CCC=C1c2ccccc2CCc2ccccc21` [Amitriptyline], the “Risk Group” value in data set [2] is 4.
Turning to `Cc1cc(N2CCN(C)CC2)nc2ccc(NC(=O)C(C)Oc3ccc(Cl)cc3Cl)cc12` (stereo not drawn), the IC50 worked out at 280 nM in data set [3] and 2000 nM in data set [4] (setting [6]).
As to `CC(CN(C)C)CN1c2ccccc2CCc2ccccc21` (stereo not drawn) [Trimipramine], the “Ki in μM ± S.D. (#)” value in data set [1] is recorded as “No effect at 10”. Further, in data set [2], the “Risk Group” value is on record as 4.

The values above are taken from patent US20060111357A1, “Quinoline compounds for use in mch receptor related disorders” (priority 2003, published 2006).
